# Test results from ChEMBL document CHEMBL1143888, “Synthesis and structure-activity relationships of N-{1-[(6-fluoro-2-naphthyl)methyl]piperidin-4-yl}benzamide derivatives as novel CCR3 antagonists” (Bioorg Med Chem, 2008).
# Target: T1, C-C chemokine receptor type 3 (Homo sapiens, UniProt P51677)
# T1 sequence (P51677 whole entry): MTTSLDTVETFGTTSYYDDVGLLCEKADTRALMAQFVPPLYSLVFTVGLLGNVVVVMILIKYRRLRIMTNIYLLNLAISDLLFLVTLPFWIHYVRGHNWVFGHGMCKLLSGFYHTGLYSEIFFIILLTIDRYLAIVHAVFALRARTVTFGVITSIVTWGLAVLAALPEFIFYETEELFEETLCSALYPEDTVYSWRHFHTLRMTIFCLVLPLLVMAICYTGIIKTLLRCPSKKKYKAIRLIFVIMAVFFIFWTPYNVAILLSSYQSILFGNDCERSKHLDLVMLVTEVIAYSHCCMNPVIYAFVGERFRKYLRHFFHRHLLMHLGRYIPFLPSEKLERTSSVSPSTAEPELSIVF
# Assay: Antagonist activity at CCR3 expressed in B300-19 cells assessed as inhibition of eotaxin-induced calcium influx
# Assay type: functional, cell-based
row,SMILES,IC50 [nM]
1,COc1cccc(C(=O)NC2CCN(Cc3ccc4cc(F)ccc4c3)CC2)c1,3500
2,Fc1ccc2cc(CN3CCC(NCc4ccccc4)CC3)ccc2c1,600
3,O=C(Nc1ccccc1)OC1CCN(Cc2ccc3cc(F)ccc3c2)CC1,4800
4,COc1ccc(C(=O)NC2CCN(Cc3ccc4cc(F)ccc4c3)CC2)cc1,2400
5,O=C(NC1CCN(Cc2ccc3cc(F)ccc3c2)CC1)c1ccccc1F,2900
6,CN(C(=O)c1ccccc1)C1CCN(Cc2ccc3cc(F)ccc3c2)CC1,810
7,O=C(NC1CCN(Cc2ccc3cc(F)ccc3c2)CC1)c1ccccc1Oc1ccccc1,95
8,O=C(NC1CCN(Cc2ccc3cc(F)ccc3c2)CC1)c1ccccc1,1300
9,COc1ccccc1C(=O)NC1CCN(Cc2ccc3cc(F)ccc3c2)CC1,720
10,O=C(NC1CCN(Cc2ccc3cc(F)ccc3c2)CC1)c1cccc(F)c1,670
11,O=C(Nc1ccccc1)C1CCN(Cc2ccc3cc(F)ccc3c2)CC1,1700
12,O=C(NC1CCN(Cc2ccc3cc(F)ccc3c2)CC1)c1cccc(Oc2ccccc2)c1,1100
13,O=S(=O)(NC1CCN(Cc2ccc3cc(F)ccc3c2)CC1)c1ccccc1,830
14,CC1(NC(=O)c2ccccc2-c2ccccc2)CCN(Cc2ccc3cc(F)ccc3c2)CC1,2800
15,O=C(NC1CCN(C/C=C/c2ccc(F)cc2)CC1)c1ccccc1,3400

# Target: T2, C-C chemokine receptor type 3 (Homo sapiens) (UniProt P51677)
# T2 sequence (whole entry): T1 sequence (P51677 whole entry)
# Assay: Antagonist activity at CCR3 expressed in B300-19 cells assessed as inhibition of eotaxin-induced calcium influx at 10 uM
# Assay type: functional, cell-based
row,SMILES,inhibition [%]
1,O=C(NC1CCN(Cc2ccc3cc(F)ccc3c2)CC1)c1ccc(Oc2ccccc2)cc1,40
2,O=C(NC1CCN(Cc2ccc3cc(F)ccc3c2)CC1)c1ccc(-c2ccccc2)cc1,27
3,O=C(Nc1ccccc1)NC1CCN(Cc2ccc3cc(F)ccc3c2)CC1,31

# Target: T3, C-C chemokine receptor type 1 (Homo sapiens) (UniProt P32246)
# T3 sequence (whole entry): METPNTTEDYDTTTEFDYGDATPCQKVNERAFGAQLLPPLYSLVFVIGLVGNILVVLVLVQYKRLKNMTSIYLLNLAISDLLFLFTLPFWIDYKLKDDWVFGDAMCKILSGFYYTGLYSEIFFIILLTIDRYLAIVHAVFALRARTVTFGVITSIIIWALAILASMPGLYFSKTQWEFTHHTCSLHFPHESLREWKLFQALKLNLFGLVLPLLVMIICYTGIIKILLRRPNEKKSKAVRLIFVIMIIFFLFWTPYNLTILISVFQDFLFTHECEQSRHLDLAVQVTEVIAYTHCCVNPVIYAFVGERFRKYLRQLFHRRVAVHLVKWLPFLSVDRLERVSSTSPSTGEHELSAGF
# Assay: Inhibition of CCR1 at 10 uM
row,SMILES,inhibition [%]
1,O=C(NC1C[C@@H]2CC[C@@H](C1)N2Cc1ccc2cc(F)ccc2c1)c1ccccc1-c1ccccc1 (relative stereo; 31),40
